Several values for one entry are separate records, joined by “and”; a condition that tells them apart may be missing. Equal entries are not always repeated.
Legend:
P. aeruginosa = test: Checkerboard assay (antibiotic potentiation); type: cell-based, Pseudomonas aeruginosa; settings: for MICantibiotic: antibiotic alone
Experimental: (§1) The interaction between the compounds and the antibiotics was evaluated using the fractional inhibitory concentration (FIC) index. FIC indices of ≤0.5 is synergistic, 0.5 < × ≤ 4 is additive, whereas >4 is antagonistic ([34]).
(§2) Synergy was measured by the FIC index, which is the summation of the individual FICs of the antibiotic and the compound. The FIC is calculated by dividing the MIC of one agent in the presence of another by the MIC of the agent alone. […] The FBS studies were conducted by following a previously published protocol ([29], [50]). The FBS was inactivated by heating at 56°C for 30 min with constant swirling.

E. cloacae = test: Checkerboard assay (antibiotic potentiation); type: cell-based, Enterobacter cloacae; settings: E. cloacae 121887 (colistin-resistant)
Experimental: (§3) The interaction between the compounds and the antibiotics was evaluated using the fractional inhibitory concentration (FIC) index. FIC indices of ≤0.5 is synergistic, 0.5 < × ≤ 4 is additive, whereas >4 is antagonistic ([34]). […] .
(§4) The bacterial isolates were acquired from ATCC or the Canadian Ward Surveillance (CANWARD) study ([56]). CANWARD isolates were collected from infected patients admitted to participating medical centers across Canada.
(§5) The antibiotic and compounds were serially diluted 2-fold in CAMHB along the x- and y-axis, respectively, on a 96-well plate that was subsequently incubated with equal volumes of bacterial inoculum overnight at 37°C. Wells containing only media were used as negative controls, and wells containing only bacteria were used as positive controls. Synergy was measured by the FIC index, which is the summation of the individual FICs of the antibiotic and the compound. The FIC is calculated by dividing the MIC of one agent in the presence of another by the MIC of the agent alone. Turbidity was confirmed with a Molecular Devices (United States) EMax Plus microplate reader at a wavelength of 590 nm. The FBS studies were conducted by following a previously published protocol ([29], [50]). The FBS was inactivated by heating at 56°C for 30 min with constant swirling.

[1] = system: MDR Gram-negative bacteria clinical isolates; test: Checkerboard assay, summary over strains; type: cell-based; settings: of all 14 clinical isolates; number (%)
Experimental: as §1, §5

K. pneumoniae = test: Checkerboard assay (antibiotic potentiation); type: cell-based, Klebsiella pneumoniae; settings: for Interpretation: antibiotic + compound 1; for MICantibiotic: antibiotic alone; for Potentiation: of antibiotic by 8 µg/mL (5 µM) compound 1
Experimental: as §1, §2

A. baumannii = test: Checkerboard assay (antibiotic potentiation); type: cell-based, Acinetobacter baumannii; settings: for MICantibiotic: antibiotic alone
Experimental: as §3, §4, §5

E. coli = test: Checkerboard assay (antibiotic potentiation); type: cell-based, Escherichia coli; settings: for Interpretation: antibiotic + compound 1; for MICantibiotic + compound: antibiotic MIC with 8 µg/mL (5 µM) compound 1; for MICantibiotic: antibiotic alone; for Potentiation: of antibiotic by 8 µg/mL (5 µM) compound 1
Experimental: as §1, §2

[2] = K. pneumoniae 113250 (colistin-resistant)
[3] = E. coli 94393 (colistin-resistant)
[4] = E. coli 94474 (colistin-resistant)

`CC(C)(O/N=C(\C(=O)N[C@@H]1C(=O)N2C(C(=O)[O-])=C(C[n+]3ccccc3)CS[C@H]12)c1csc(N)n1)C(=O)O` [Ceftazidime] was tested, and the Interpretation (P. aeruginosa; P. aeruginosa 259-96916, antibiotic + compound 1) was “Synergy (FIC indices of ≤0.5 is synergistic)”, the “MICantibiotic + compound” value (P. aeruginosa; P. aeruginosa 259-96916, antibiotic MIC with 8 µg/mL (5 µM) compound 1) was 16 µg/mL and the MICantibiotic (P. aeruginosa; P. aeruginosa 259-96916) was 512 µg/mL. The Potentiation (P. aeruginosa; P. aeruginosa 259-96916, of antibiotic by 8 µg/mL (5 µM) compound 1) was 32 fold, the Interpretation (P. aeruginosa; P. aeruginosa 262-101856, antibiotic + compound 1) was “Synergy (FIC indices of ≤0.5 is synergistic)” and the “MICantibiotic + compound” value (P. aeruginosa; P. aeruginosa 262-101856, antibiotic MIC with 8 µg/mL (5 µM) compound 1) was 4 µg/mL. The MICantibiotic (P. aeruginosa; P. aeruginosa 262-101856) was 16 µg/mL, the Potentiation (P. aeruginosa; P. aeruginosa 262-101856, of antibiotic by 8 µg/mL (5 µM) compound 1) was 4 fold and the Interpretation (P. aeruginosa; P. aeruginosa 264-105354, antibiotic + compound 1) was “Synergy (FIC indices of ≤0.5 is synergistic)”. For the same compound, the “MICantibiotic + compound” value (P. aeruginosa; P. aeruginosa 264-105354, antibiotic MIC with 8 µg/mL (5 µM) compound 1) was 16 µg/mL, the MICantibiotic (P. aeruginosa; P. aeruginosa 264-105354) was 128 µg/mL and the Potentiation (P. aeruginosa; P. aeruginosa 264-105354, of antibiotic by 8 µg/mL (5 µM) compound 1) was 8 fold. For the same compound, the Interpretation (P. aeruginosa; P. aeruginosa 101243 (colistin-resistant), antibiotic + compound 1) was “Additive (0.5 < × ≤ 4 is additive)”, the “MICantibiotic + compound” value (P. aeruginosa; P. aeruginosa 101243 (colistin-resistant), antibiotic MIC with 8 µg/mL (5 µM) compound 1) was 256 µg/mL and the MICantibiotic (P. aeruginosa; P. aeruginosa 101243 (colistin-resistant)) was 512 µg/mL. The Potentiation (P. aeruginosa; P. aeruginosa 101243 (colistin-resistant), of antibiotic by 8 µg/mL (5 µM) compound 1) was 2 fold, the Interpretation (P. aeruginosa; P. aeruginosa 114228 (colistin-resistant), antibiotic + compound 1) was “Additive (0.5 < × ≤ 4 is additive)” and the “MICantibiotic + compound” value (P. aeruginosa; P. aeruginosa 114228 (colistin-resistant), antibiotic MIC with 8 µg/mL (5 µM) compound 1) was 8 µg/mL. The MICantibiotic (P. aeruginosa; P. aeruginosa 114228 (colistin-resistant)) was 8 µg/mL, the Potentiation (P. aeruginosa; P. aeruginosa 114228 (colistin-resistant), of antibiotic by 8 µg/mL (5 µM) compound 1) was 1 fold and the Interpretation (P. aeruginosa; P. aeruginosa PAO1, antibiotic + compound 1) was “Synergy (FIC indices of ≤0.5 is synergistic)”. The Interpretation (P. aeruginosa; P. aeruginosa PAO1, antibiotic + compound 3) was “Additive (0.5 < × ≤ 4 is additive)”, the “MICantibiotic + compound” value (P. aeruginosa; P. aeruginosa PAO1, antibiotic MIC with 8 µg/mL (5 µM) compound 1) was 0.5 µg/mL and the “MICantibiotic + compound” value (P. aeruginosa; P. aeruginosa PAO1, antibiotic MIC with 8 µg/mL (5 µM) compound 3) was 4 µg/mL. For the same compound, the MICantibiotic (P. aeruginosa; P. aeruginosa PAO1) was 4 µg/mL and 2 µg/mL, the Potentiation (P. aeruginosa; P. aeruginosa PAO1, of antibiotic by 8 µg/mL (5 µM) compound 1) was 4 fold and the Potentiation (P. aeruginosa; P. aeruginosa PAO1, of antibiotic by 8 µg/mL (5 µM) compound 3) was 1 fold. For the same compound, the Interpretation (E. cloacae; antibiotic + compound 1) was “Additive (0.5 < × ≤ 4 is additive)”, the “MICantibiotic + compound” value (E. cloacae; antibiotic MIC with 8 µg/mL (5 µM) compound 1) was 0.25 µg/mL and the MICantibiotic (E. cloacae; antibiotic alone) was 0.25 µg/mL. For the same compound, the Potentiation (E. cloacae; of antibiotic by 8 µg/mL (5 µM) compound 1) was 1 fold, the “clinical isolates in which the antibiotic was synergized by compound 1” value [1] was 5 (36%) strains and the Interpretation (K. pneumoniae; [2]) was “Additive (0.5 < × ≤ 4 is additive)”. For the same compound, the “MICantibiotic + compound” value (K. pneumoniae; K. pneumoniae 113250 (colistin-resistant), antibiotic MIC with 8 µg/mL (5 µM) compound 1) was 0.5 µg/mL, the MICantibiotic (K. pneumoniae; [2]) was 0.5 µg/mL and the Potentiation (K. pneumoniae; [2]) was 1 fold. The Interpretation (K. pneumoniae; K. pneumoniae 116381) was “Synergy (FIC indices of ≤0.5 is synergistic)”, the MICantibiotic (K. pneumoniae; K. pneumoniae 116381) was 8 µg/mL and the Potentiation (K. pneumoniae; K. pneumoniae 116381) was 64 fold. For the same compound, the Interpretation (A. baumannii; A. baumannii 92247 (colistin-resistant), antibiotic + compound 1) was “Additive (0.5 < × ≤ 4 is additive)”, the “MICantibiotic + compound” value (A. baumannii; A. baumannii 92247 (colistin-resistant), antibiotic MIC with 4 µg/mL (2 µM) compound 1) was 4 µg/mL and the MICantibiotic (A. baumannii; A. baumannii 92247 (colistin-resistant)) was 8 µg/mL. For the same compound, the Potentiation (A. baumannii; A. baumannii 92247 (colistin-resistant), of antibiotic by 4 µg/mL (2 µM) compound 1) was 2 fold, the Interpretation (A. baumannii; A. baumannii 110193, antibiotic + compound 1) was “Synergy (FIC indices of ≤0.5 is synergistic)” and the “MICantibiotic + compound” value (A. baumannii; A. baumannii 110193, antibiotic MIC with 4 µg/mL (2 µM) compound 1) was 64 µg/mL. For the same compound, the MICantibiotic (A. baumannii; A. baumannii 110193) was 256 µg/mL, the Potentiation (A. baumannii; A. baumannii 110193, of antibiotic by 4 µg/mL (2 µM) compound 1) was 4 fold and the Interpretation (A. baumannii; A. baumannii AB027, antibiotic + compound 1) was “Additive (0.5 < × ≤ 4 is additive)”. The “MICantibiotic + compound” value (A. baumannii; A. baumannii AB027, antibiotic MIC with 4 µg/mL (2 µM) compound 1) was 1024 µg/mL, the MICantibiotic (A. baumannii; A. baumannii AB027) was 2048 µg/mL and the Potentiation (A. baumannii; A. baumannii AB027, of antibiotic by 4 µg/mL (2 µM) compound 1) was 2 fold. For the same compound, the “MICantibiotic + compound” value (A. baumannii; A. baumannii AB031, antibiotic MIC with 4 µg/mL (2 µM) compound 1) was over 64 µg/mL, the MICantibiotic (A. baumannii; A. baumannii AB031) was over 64 µg/mL and the Interpretation (A. baumannii; A. baumannii ATCC 17978, antibiotic + compound 1) was “Synergy (FIC indices of ≤0.5 is synergistic)”. For the same compound, the Interpretation (A. baumannii; A. baumannii ATCC 17978, antibiotic + compound 3) was “Additive (0.5 < × ≤ 4 is additive)”, the “MICantibiotic + compound” value (A. baumannii; A. baumannii ATCC 17978, antibiotic MIC with 8 µg/mL (5 µM) compound 3) was 4 µg/mL and the “MICantibiotic + compound” value (A. baumannii; A. baumannii ATCC 17978, antibiotic MIC with ¼ MIC (≤5 µM) of compound 1) was 1 µg/mL. The Potentiation (A. baumannii; A. baumannii ATCC 17978, of antibiotic by 8 µg/mL (5 µM) compound 3) was 1 fold, the Potentiation (A. baumannii; A. baumannii ATCC 17978, of antibiotic by ¼ MIC (≤5 µM) of compound 1) was 16 fold and the Interpretation (E. coli; [3]) was “Additive (0.5 < × ≤ 4 is additive)”. The “MICantibiotic + compound” value (E. coli; [3]) was 0.5 µg/mL, the MICantibiotic (E. coli; [3]) was 0.5 µg/mL and the Potentiation (E. coli; [3]) was 1 fold. The Interpretation (E. coli; [4]) was “Additive (0.5 < × ≤ 4 is additive)”, the “MICantibiotic + compound” value (E. coli; [4]) was 0.25 µg/mL and the MICantibiotic (E. coli; [4]) was 0.5 µg/mL. It also gave a Potentiation (E. coli; [4]) of 2 fold.

Reference: article PMC12587545, “Noncytotoxic polymyxin derivatives enhance antibiotic action against multidrug-resistant Gram-negative bacteria” (Antimicrobial Agents and Chemotherapy, 2025)
